Assay results as given in patent publication EP4736876A1, “DRUG COMBINATION CONTAINING PD-L1 SMALL MOLECULE INHIBITOR AND USE THEREOF” (Beijing Maxinovel Pharmaceuticals Co., Ltd., priority 2023, dated 2025).

Tests used:
[1] = test system: 4T1 hPD-L1 cells; test: Pharmacodynamic study on mouse breast cancer 4T1 hPD-L1 model, subcutaneous (Example 1, capecitabine combination); assay type: in vivo, BALB/c mice; conditions: Compound of Formula I 120 mg/kg p.o. BID, Capecitabine 100 mg/kg p.o. QD; for TGI (%)/Day 21: Day 21 vs vehicle control; for Tumor Volume at the Beginning of the Experiment/Day 0: baseline on day of grouping
Description: Experimental animals: 100 BALB/c mice, female, 6 to 8 weeks old, weighing 18 to 21 g, purchased from Shanghai Jihui Laboratory Animal Care Co., Ltd. (SCXK (Shanghai) 2020-0009; Certificate No.: 20220009001922).
Drugs: Compound of Formula I [drawing 4] manufacturer: Pharmaron (Tianjin) Process Development and Manufacturing Co., Ltd., batch number: TJ-MAX-10181-A-2; Capecitabine, manufacturer: Shanghai Yuanye Bio-Technology Co., Ltd., batch number: J10J12L137020.
(§1) Murine 4T1 hPD-L1 cells were grown adherently in vitro under culture conditions of RPMI-1640 medium supplemented with 10% heat-inactivated fetal bovine serum and 4 µg/mL Blasticidin (Beyotime/ST018-1mL), at 37°C with 5% CO2. Cells were passaged 2 to 3 times per week. When cells were in the exponential growth phase, the cells were harvested, counted, and inoculated subcutaneously on the right dorsal side of BALB/c mice.
100 µL of 1 × 10^6 4T1 hPD-L1 cell suspension was inoculated subcutaneously on the right dorsal side of BALB/c mice. On the 6th day after inoculation, suitable animals were selected based on tumor volume and body weight, and stratified randomization was used to divide them into 4 groups, with 10 mice per group. Administration began on the day of grouping. Table 1: Animal Experiment Grouping and Administration Regimen
(§2) The experimental indicators were examined to determine whether tumor growth could be inhibited, delayed, or cured. Tumors were measured three times per week using a digital vernier caliper. The tumor volume was calculated using the formula: V = 0.5a × b^2, where a and b represent the long and short diameters of the tumor, respectively. The tumor growth inhibition efficacy of compounds was calculated as: TGI (%) = [1 - (TVi - TV0) / (TVVi - TVV0)] × 100% (where TV0 represents the mean volume of the treatment group on day 0, TVV0 represents the mean volume of the control group on day 0; TVi represents the mean volume of the treatment group on day i, and TVVi represents the mean volume of the control group on day i).
(§3) If the animals' health condition continued to deteriorate, or the tumor volume exceeded 2,000 mm^3, or severe illness or pain occurred, euthanasia was required. In the following circumstances, the veterinarian was notified and euthanasia was performed: • (1) Significant emaciation with body weight loss exceeding 20%; • (2) Inability to freely access food and water; • (3) The experiment was terminated when the average tumor volume in the control group reached 2000 mm^3.
(§4) GraphPad Prism 8.0 software was used for plotting. Changes in tumor volume in mice were analyzed by Two-way ANOVA and compared with the vehicle control group using Dunnett's method, with P < 0.05 considered statistically significant.

[2] = test system: 4T1 hPD-L1 cells; test: Pharmacodynamic study on mouse breast cancer 4T1 hPD-L1 model, subcutaneous (Example 2, celecoxib combination); assay type: in vivo, BALB/c mice; conditions: Compound of Formula I 120 mg/kg p.o. BID, Celecoxib 60 mg/kg p.o. BID; for TGI (%)/Day 21: Day 21 vs vehicle control; for Tumor Volume at the End of the Experiment/Day 21 / Tumor Volume at the Beginning of the Experiment/Day 0 / Body Weight of Animals at the Beginning of the Experiment / Body Weight of Animals at the End of the Experiment / Relative Body Weight Change of Animals at the End of the Experiment: mean; for Tumor Volume at the End of the Experiment/Day 21 / Tumor Volume at the Beginning of the Experiment/Day 0: n=10; for Tumor Volume at the Beginning of the Experiment/Day 0: baseline on day of grouping; for Body Weight of Animals at the Beginning of the Experiment: baseline
Description: Experimental animals: 100 BALB/c mice, female, 6 to 8 weeks old, weighing 18 to 21 g, purchased from: Shanghai Jihui Laboratory Animal Care Co., Ltd. (SCXK (Shanghai) 2020-0009; Certificate No.: 20220009001922).
Drugs: Compound of Formula I, manufacturer: Pharmaron (Tianjin) Process Development and Manufacturing Co., Ltd., batch number: TJ-MAX-10181-A-2; Celecoxib, manufacturer: Shanghai Yuanye Bio-Technology Co., Ltd., batch number: D11A6S2152.
as §1
100 µL of 1 × 10^6 4T1 hPD-L1 cell suspension was inoculated subcutaneously on the right dorsal side of BALB/c mice. On the seventh day after inoculation, stratified randomization was used to divide into 4 groups (10 mice per group) based on tumor volume and body weight. Administration began on the day of grouping. Table 5: Animal Experiment Grouping and Administration Regimen
as §2, §3, §4

[3] = test system: 4T1 cells; test: Orthotopic 4T1 breast cancer model with tumor resection, survival study (Example 3, paclitaxel combination); assay type: in vivo, BALB/c mice; conditions: day 38; Compound of Formula I 60 mg/kg PO BID; Paclitaxel 6 mg/kg IP Q2D; orthotopic tumors resected 13 days after inoculation; n=10
Description: Experimental animals: 50 BALB/c mice, female, 6 to 8 weeks old, weighing 18 to 20 g. Zhejiang Vital River Laboratory Animal Technology Co., Ltd., Tongxiang Branch (SCKX (Zhejiang) 2021-0006); Certificate No.: 20220728Abzz0600000694.
Drugs: Compound of Formula I, manufacturer: Pharmaron (Tianjin) Process Development and Manufacturing Co., Ltd., batch number: TJ-MAX-10181-A-2; Paclitaxel (6 mg/mL), manufacturer: Corden Pharma Latina S.P.A., batch number: 2D07013.
as §1, with “4T1” for “4T1 hPD-L1”, “serum” for “serum and 4 µg/mL Blasticidin (Beyotime/ST018-1mL),”, “When the” for “When”, “into the fourth fat pad” for “subcutaneously”, “left abdomen” for “right dorsal side”
50 µL of 1 × 10^5 4T1 cell suspension was inoculated into the fourth fat pad on the left abdomen of BALB/c mice. […]
The experimental indicators were examined to determine whether tumor growth could be inhibited, delayed, or cured. Tumors were measured three times per week using a digital vernier caliper. The tumor volume was calculated using the formula: V = 0.5a × b^2, where a and b represent the long and short diameters of the tumor, respectively. […]

[4] = test system: GL-261-luc cells; test: Mouse glioma GL-261-luc brain orthotopic xenograft tumor model, pharmacodynamics and survival (Example 4, temozolomide combination); assay type: in vivo, C57 BL/6 mice; conditions: Compound of Formula I 120 mg/kg PO BID, TMZ 7.5 mg/kg IP BIW; for TGI (%)/Day 14: Day 14, based on fluorescence signal intensity vs vehicle control; for Total Fluorescence Intensity at the Beginning of the Experiment/Day 0: baseline Day 0; for mice showed > 10% body weight loss: by day 14 of administration, 9 mice per group; for Body Weight of Animals at the End of the Experiment / Relative Body Weight Change of Animals at the End of the Experiment / Body Weight of Animals at the Beginning of the Experiment: mean, n=9; for Body Weight of Animals at the Beginning of the Experiment: baseline; for increase in life span (ILS): median survival vs vehicle control, end of experiment
Description: Experimental animals: 57 C57 BL/6 mice, female, 6 to 8 weeks old, weighing 16 to 20 g, purchased from Shanghai Jihui Laboratory Animal Care Co., Ltd.
Drugs: Compound of Formula I [drawing 5] manufacturer: Pharmaron (Tianjin) Process Development and Manufacturing Co., Ltd., batch number: TJ-MAX-10181-A-2; TMZ (Temozolomide), manufacturer: Shanghai Aladdin Biochemical Technology Co., Ltd., batch number: J2227749.
Murine GL-261-luc cells were grown adherently in vitro under culture conditions of DMEM medium supplemented with 10% heat-inactivated fetal bovine serum and 0.6 mg/mL G418 (stock concentration: 100 mg/mL), at 37°C with 5% CO2. Cells were passaged 2 to 3 times per week. When cells were in the exponential growth phase, the cells were harvested, counted, and inoculated into the right caudate nucleus of C57 BL/6 mice.
GL-261-luc cells in logarithmic growth phase were harvested at full confluence with viability guaranteed 90% or more. Mice were anesthetized via intraperitoneal injection of 41.6 mg/kg Zoletil according to body weight. 1 × 10^5/2 µL/mouse cells was orthotopically inoculated into the right caudate nucleus of each mouse, and the skin was sutured with 4/0 suture. After recovery, mice were returned to their cages. 4 days after inoculation, mice were imaged and grouped using the IVIS Lumina XR small animal imager. Fluorescence signal intensity was used for stratified randomization into 4 groups (9 mice per group). Administration began on the day of grouping, with daily weight monitoring and observation of mouse growth status. Mice were imaged twice weekly. Table 11: Animal Experiment Grouping and Administration Regimen
The experimental indicators were examined to determine whether tumor growth could be inhibited, delayed, or cured. According to the experimental design, tumor growth was monitored by imaging mice using the IVIS Lumina XR small animal imager. The tumor growth inhibition efficacy of the compounds was evaluated using TGI (Tumor Growth Inhibition), where TGI (%) = [1 - (TFtreatment-Dn - TFtreatment-D0) / (TFcontrol-Dn - TFcontrol-D0)] × 100% (where TFtreatment-D0 represents the fluorescence signal intensity of the treatment group on day 0, TFcontrol-D0 represents the fluorescence signal intensity of the control group on day 0; TFtreatment-Dn represents the fluorescence signal intensity of the treatment group on day n, and TFcontrol-Dn represents the fluorescence signal intensity of the control group on day n). The calculation formula for an increase in life span (ILS) is: ILS = (MSTTreatment - MSTControl) / MSTControl × 100% (where MSTTreatment is the median survival days for the treatment group, and MSTControl is the median survival days for the control group).
Tumor size was analyzed using the statistical software GraphPad Prism based on fluorescence signal intensity values. Two-way ANOVA was used to compare whether there were significant differences in fluorescence signal intensity between the control group and each treatment group, with p < 0.05 considered statistically significant and p < 0.01 considered highly statistically significant.

Structure (SMILES) | TGI (%)/Day 21 [1] [%] | Tumor Volume at the Beginning of the Experiment/Day 0 ([1]; mean, n=10) [mm^3] | TGI (%)/Day 21 [2] [%] | Tumor Volume at the End of the Experiment/Day 21 [2] [mm^3] | Tumor Volume at the Beginning of the Experiment/Day 0 [2] [mm^3] | Body Weight of Animals at the Beginning of the Experiment [2] [g] | Body Weight of Animals at the End of the Experiment [2] [g] | Relative Body Weight Change of Animals at the End of the Experiment [2] [%] | survival rate of mice [3] [%] | TGI (%)/Day 14 [4] [%] | Total Fluorescence Intensity at the End of the Experiment/Day 14 [4] [E + 09 p/s] | Total Fluorescence Intensity at the Beginning of the Experiment/Day 0 [4] [E + 07 p/s] | mice showed > 10% body weight loss [4] [mice] | Body Weight of Animals at the End of the Experiment [4] [g] | Relative Body Weight Change of Animals at the End of the Experiment [4] [%] | Body Weight of Animals at the Beginning of the Experiment [4] [g] | increase in life span (ILS) [4] [%] | Tumor Volume at the End of the Experiment/Day 21 ([1]; mean, n=10, Day 21) [mm^3] | Body Weight of Animals at the Beginning of the Experiment ([1]; mean, baseline) [g]
CCCCCOC(=O)Nc1nc(=O)n([C@@H]2O[C@H](C)[C@@H](O)[C@H]2O)cc1F [Capecitabine] | 56.16 | 125.17 | – | – | – | – | – | – | – | – | – | – | – | – | – | – | – | – | –
Cc1ccc(-c2cc(C(F)(F)F)nn2-c2ccc(S(N)(=O)=O)cc2)cc1 [Celecoxib] | – | – | 83.90 | 341.70 | 159.34 | 22.68 | 23.68 | 4.48 | – | – | – | – | – | – | – | – | – | – | –
CC(=O)O[C@H]1C(=O)[C@@]2(C)[C@H]([C@H](OC(=O)c3ccccc3)[C@]3(O)C[C@H](OC(=O)[C@H](O)[C@@H](NC(=O)c4ccccc4)c4ccccc4)C(C)=C1C3(C)C)[C@]1(OC(C)=O)CO[C@@H]1C[C@@H]2O [Paclitaxel] | – | – | – | – | – | – | – | – | 10 | – | – | – | – | – | – | – | – | – | –
Cn1nnc2c(C(N)=O)ncn2c1=O [TMZ, Temozolomide] | – | – | – | – | – | – | – | – | – | 35.51 | 1.27 | 2.76 | 2 | 19.40 | -0.63 | 19.51 | 25 | – | –
Cc1c(/C=C/c2cc(CN[C@@](C)(CO)C(=O)O)ccc2C(F)(F)F)cccc1-c1ccccc1 [Compound of Formula I] | 41.88 | 125.52 | 32.78 | 921.91 | 160.33 | 23.04 | 24.85 | 8.01 | 0 | 40.52 | 1.18 | 2.75 | 2 | 18.29 | -3.08 | 18.89 | 20 | 1103.30 | 24.20
